Reference: the NIST ThermoML archive (doi:10.1021/je600554h)

Assay: xn = mol fraction of the nth substance listed
Conditions: 100 kPa, Liquid; for viscosity: Capillary tube (Ostwald / Ubbelohde) method

COC(C)(C)C [2-methoxy-2-methylpropane] + CCCCCCCC
Conditions	mass density [kg/m3]	viscosity [mPa·s]
273.15 K, x1 = 0.1019	–	0.685
273.15 K, x1 = 0.1059	721.15	–
273.15 K, x1 = 0.2123	724.203	–
273.15 K, x1 = 0.2189	–	0.651
273.15 K, x1 = 0.3019	727.065	–
273.15 K, x1 = 0.3026	–	0.622
273.15 K, x1 = 0.4029	–	0.597
273.15 K, x1 = 0.4099	730.835	–
273.15 K, x1 = 0.4995	–	0.57
273.15 K, x1 = 0.5053	734.583	–
273.15 K, x1 = 0.6005	738.614	–
273.15 K, x1 = 0.6099	–	0.549
273.15 K, x1 = 0.6934	742.992	–
273.15 K, x1 = 0.7072	–	0.525
273.15 K, x1 = 0.7967	748.318	–
273.15 K, x1 = 0.7981	–	0.494
273.15 K, x1 = 0.8941	–	0.472
273.15 K, x1 = 0.8975	754.329	–
278.15 K, x1 = 0.1019	–	0.638
278.15 K, x1 = 0.1059	717.106	–
278.15 K, x1 = 0.2123	720.082	–
278.15 K, x1 = 0.2189	–	0.607
278.15 K, x1 = 0.3019	722.866	–
278.15 K, x1 = 0.3026	–	0.583
278.15 K, x1 = 0.4029	–	0.559
278.15 K, x1 = 0.4099	726.533	–
278.15 K, x1 = 0.4995	–	0.534
278.15 K, x1 = 0.5053	730.183	–
278.15 K, x1 = 0.6005	734.106	–
278.15 K, x1 = 0.6099	–	0.514
278.15 K, x1 = 0.6934	738.371	–
278.15 K, x1 = 0.7072	–	0.492
278.15 K, x1 = 0.7967	743.56	–
278.15 K, x1 = 0.7981	–	0.462
278.15 K, x1 = 0.8941	–	0.442
278.15 K, x1 = 0.8975	749.42	–
283.15 K, x1 = 0.1019	–	0.597
283.15 K, x1 = 0.1059	713.046	–
283.15 K, x1 = 0.2123	715.938	–
283.15 K, x1 = 0.2189	–	0.568
283.15 K, x1 = 0.3019	718.644	–
283.15 K, x1 = 0.3026	–	0.545
283.15 K, x1 = 0.4029	–	0.523
283.15 K, x1 = 0.4099	722.208	–
283.15 K, x1 = 0.4995	–	0.501
283.15 K, x1 = 0.5053	725.756	–
283.15 K, x1 = 0.6005	729.573	–
283.15 K, x1 = 0.6099	–	0.483
283.15 K, x1 = 0.6934	733.719	–
283.15 K, x1 = 0.7072	–	0.462
283.15 K, x1 = 0.7967	738.766	–
283.15 K, x1 = 0.7981	–	0.435
283.15 K, x1 = 0.8941	–	0.417
283.15 K, x1 = 0.8975	744.471	–
288.15 K, x1 = 0.1019	–	0.559
288.15 K, x1 = 0.1059	708.972	–
288.15 K, x1 = 0.2123	711.779	–
288.15 K, x1 = 0.2189	–	0.533
288.15 K, x1 = 0.3019	714.403	–
288.15 K, x1 = 0.3026	–	0.514
288.15 K, x1 = 0.4029	–	0.492
288.15 K, x1 = 0.4099	717.859	–
288.15 K, x1 = 0.4995	–	0.471
288.15 K, x1 = 0.5053	721.306	–
288.15 K, x1 = 0.6005	725.009	–
288.15 K, x1 = 0.6099	–	0.454
288.15 K, x1 = 0.6934	729.044	–
288.15 K, x1 = 0.7072	–	0.435
288.15 K, x1 = 0.7967	733.942	–
288.15 K, x1 = 0.7981	–	0.41
288.15 K, x1 = 0.8941	–	0.393
288.15 K, x1 = 0.8975	739.489	–
293.15 K, x1 = 0.1019	–	0.525
293.15 K, x1 = 0.1059	704.884	–
293.15 K, x1 = 0.2123	707.601	–
293.15 K, x1 = 0.2189	–	0.501
293.15 K, x1 = 0.3019	710.139	–
293.15 K, x1 = 0.3026	–	0.483
293.15 K, x1 = 0.4029	–	0.464
293.15 K, x1 = 0.4099	713.488	–
293.15 K, x1 = 0.4995	–	0.445
293.15 K, x1 = 0.5053	716.833	–
293.15 K, x1 = 0.6005	720.419	–
293.15 K, x1 = 0.6099	–	0.428
293.15 K, x1 = 0.6934	724.332	–
293.15 K, x1 = 0.7072	–	0.411
293.15 K, x1 = 0.7967	729.066	–
293.15 K, x1 = 0.7981	–	0.388
293.15 K, x1 = 0.8941	–	0.372
293.15 K, x1 = 0.8975	734.467	–
298.15 K, x1 = 0.1019	–	0.495
298.15 K, x1 = 0.1059	700.768	–
298.15 K, x1 = 0.2123	703.393	–
298.15 K, x1 = 0.2189	–	0.473
298.15 K, x1 = 0.3019	705.856	–
298.15 K, x1 = 0.3026	–	0.455
298.15 K, x1 = 0.4029	–	0.439
298.15 K, x1 = 0.4099	709.092	–
298.15 K, x1 = 0.4995	–	0.42
298.15 K, x1 = 0.5053	712.324	–
298.15 K, x1 = 0.6005	715.799	–
298.15 K, x1 = 0.6099	–	0.405
298.15 K, x1 = 0.6934	719.586	–
298.15 K, x1 = 0.7072	–	0.388
298.15 K, x1 = 0.7967	724.172	–
298.15 K, x1 = 0.7981	–	0.367
298.15 K, x1 = 0.8975	729.408	–
303.15 K, x1 = 0.1019	–	0.468
303.15 K, x1 = 0.1059	696.633	–
303.15 K, x1 = 0.2123	699.177	–
303.15 K, x1 = 0.2189	–	0.447
303.15 K, x1 = 0.3019	701.546	–
303.15 K, x1 = 0.3026	–	0.43
303.15 K, x1 = 0.4029	–	0.414
303.15 K, x1 = 0.4099	704.666	–
303.15 K, x1 = 0.4995	–	0.397
303.15 K, x1 = 0.5053	707.798	–
303.15 K, x1 = 0.6005	711.146	–
303.15 K, x1 = 0.6099	–	0.382
303.15 K, x1 = 0.6934	714.806	–
303.15 K, x1 = 0.7072	–	0.367
303.15 K, x1 = 0.7967	719.238	–
303.15 K, x1 = 0.8975	724.303	–
308.15 K, x1 = 0.1019	–	0.443
308.15 K, x1 = 0.1059	692.484	–
308.15 K, x1 = 0.2123	694.926	–
308.15 K, x1 = 0.2189	–	0.425
308.15 K, x1 = 0.3019	697.212	–
308.15 K, x1 = 0.3026	–	0.409
308.15 K, x1 = 0.4029	–	0.393
308.15 K, x1 = 0.4099	700.213	–
308.15 K, x1 = 0.4995	–	0.376
308.15 K, x1 = 0.5053	703.231	–
308.15 K, x1 = 0.6005	706.458	–
308.15 K, x1 = 0.6099	–	0.362
308.15 K, x1 = 0.6934	709.988	–
308.15 K, x1 = 0.7967	714.261	–
308.15 K, x1 = 0.8975	719.151	–
313.15 K, x1 = 0.1019	–	0.42
313.15 K, x1 = 0.1059	688.303	–
313.15 K, x1 = 0.2123	690.652	–
313.15 K, x1 = 0.2189	–	0.402
313.15 K, x1 = 0.3019	692.842	–
313.15 K, x1 = 0.3026	–	0.387
313.15 K, x1 = 0.4029	–	0.374
313.15 K, x1 = 0.4099	695.728	–
313.15 K, x1 = 0.4995	–	0.358
313.15 K, x1 = 0.5053	698.629	–
313.15 K, x1 = 0.6005	701.736	–
313.15 K, x1 = 0.6934	705.127	–
313.15 K, x1 = 0.7967	709.24	–
313.15 K, x1 = 0.8975	713.95	–
318.15 K, x1 = 0.1019	–	0.398
318.15 K, x1 = 0.1059	684.108	–
318.15 K, x1 = 0.2123	686.345	–
318.15 K, x1 = 0.2189	–	0.381
318.15 K, x1 = 0.3019	688.444	–
318.15 K, x1 = 0.3026	–	0.367
318.15 K, x1 = 0.4029	–	0.355
318.15 K, x1 = 0.4099	691.207	–
318.15 K, x1 = 0.5053	693.985	–
318.15 K, x1 = 0.6005	696.968	–
318.15 K, x1 = 0.6934	700.224	–
318.15 K, x1 = 0.7967	704.169	–
318.15 K, x1 = 0.8975	708.696	–
323.15 K, x1 = 0.1019	–	0.377
323.15 K, x1 = 0.1059	679.876	–
323.15 K, x1 = 0.2123	682.017	–
323.15 K, x1 = 0.2189	–	0.361
323.15 K, x1 = 0.3019	684.017	–
323.15 K, x1 = 0.3026	–	0.349
323.15 K, x1 = 0.4099	686.655	–
323.15 K, x1 = 0.5053	689.306	–
323.15 K, x1 = 0.6005	692.159	–
323.15 K, x1 = 0.6934	695.271	–
323.15 K, x1 = 0.7967	699.039	–
328.15 K, x1 = 0.1019	–	0.359
328.15 K, x1 = 0.1059	675.617	–
328.15 K, x1 = 0.2123	677.665	–
328.15 K, x1 = 0.2189	–	0.344
328.15 K, x1 = 0.3019	679.549	–
328.15 K, x1 = 0.4099	682.067	–
328.15 K, x1 = 0.5053	684.587	–
328.15 K, x1 = 0.6005	687.304	–
328.15 K, x1 = 0.6934	690.272	–
333.15 K, x1 = 0.1019	–	0.342
333.15 K, x1 = 0.1059	671.333	–
333.15 K, x1 = 0.2123	673.25	–
333.15 K, x1 = 0.3019	675.046	–
333.15 K, x1 = 0.4099	677.434	–
333.15 K, x1 = 0.5053	679.825	–
333.15 K, x1 = 0.6005	682.397	–
338.15 K, x1 = 0.1059	667.018	–
338.15 K, x1 = 0.2123	668.815	–
338.15 K, x1 = 0.3019	670.514	–
338.15 K, x1 = 0.4099	672.758	–
343.15 K, x1 = 0.1059	662.68	–
343.15 K, x1 = 0.2123	664.349	–
343.15 K, x1 = 0.3019	665.923	–
343.15 K, x1 = 0.4099	668.038	–
348.15 K, x1 = 0.1059	658.279	–
348.15 K, x1 = 0.2123	659.83	–
348.15 K, x1 = 0.3019	661.299	–
353.15 K, x1 = 0.1059	653.843	–
353.15 K, x1 = 0.2123	655.28	–
353.15 K, x1 = 0.3019	656.638	–
358.15 K, x1 = 0.1059	649.405	–
358.15 K, x1 = 0.2123	650.681	–
358.15 K, x1 = 0.3019	651.917	–
363.15 K, x1 = 0.1059	644.85	–
363.15 K, x1 = 0.2123	646.031	–
363.15 K, x1 = 0.3019	647.14	–
